Among the test systems are NCI-H460 lung; SK-MEL-5 melanoma; OVCAR-4 ovarian; DU-145 prostate; NCI/ADR-RES ovarian; NCI-H23 lung; MDA-N; KM12 colon; HCT-15 colon; TK-10 renal.
What all share (test): DTP human tumour cell line panel, 48 h

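Method: 48-hour compound exposure of cells in 96-well plates, five concentrations, linear interpolation of endpoints. The concentration for full growth arrest is given as TGI.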

`CCOC(=O)/C(C#N)=C/c1ccnc2ccccc12`: the TGI – broadly, the concentration giving total growth inhibition – is above 100 µM in the experiment on NCI-H460 lung; above 100 µM in the experiment on SK-MEL-5 melanoma; above 100 µM with OVCAR-4 ovarian; above 100 µM in the experiment with DU-145 prostate; 52 µM in the experiment on NCI/ADR-RES ovarian; above 100 µM in the experiment with NCI-H23 lung. Besides, the TGI with MDA-N, in the experiment with KM12 colon, in the experiment on HCT-15 colon and with TK-10 renal was above 100 µM throughout.

For the compound `NNC(=O)c1nnn(CCc2ccccc2)c1C(=O)NN`, the TGI with NCI-H460 lung, in the experiment on SK-MEL-5 melanoma, in the experiment on OVCAR-4 ovarian, with DU-145 prostate, with NCI/ADR-RES ovarian and with NCI-H23 lung was above 100 µM in each case. Moreover, the TGI in the experiment with MDA-N, in the experiment with KM12 colon, in the experiment with HCT-15 colon and in the experiment on TK-10 renal was above 100 µM each time.

On to `FC(F)(F)c1cccc(-c2nc3ccccc3c3c2[C@@]2(N4CCCC4)CCCC[C@@H]32)c1`, for which the TGI was above 100 µM with NCI-H460 lung; 30.4 µM in the experiment on SK-MEL-5 melanoma; above 100 µM in the experiment on OVCAR-4 ovarian; above 100 µM with DU-145 prostate; above 100 µM in the experiment on NCI/ADR-RES ovarian; above 100 µM in the experiment with NCI-H23 lung. Also, the TGI is above 100 µM with MDA-N, above 100 µM in the experiment on KM12 colon and 89.8 µM in the experiment with TK-10 renal.

Regarding `CC(C)=CCC/C(C)=C/CC/C(C)=C/CC/C(=C/CC/C(C)=C\CC/C(C)=C/CC/C(C)=C/CC/C(C)=C/Cc1cc(O)ccc1O)CO`, the TGI in the experiment on NCI-H460 lung was 33 µM; in the experiment on SK-MEL-5 melanoma it was 15.9 µM; in the experiment on OVCAR-4 ovarian, 19.7 µM; in the experiment on DU-145 prostate it was above 100 µM; in the experiment with NCI/ADR-RES ovarian, 19.4 µM; with NCI-H23 lung, 4.89 µM. The concentration for total growth inhibition (TGI) turned out to be 64.3 µM with MDA-N, 4.16 µM with KM12 colon, 39 µM with HCT-15 colon and 19.5 µM with TK-10 renal.

With `S=C(c1c[nH]c2ccccc12)N1CCN(Cc2ccccc2)CC1`, the TGI in the experiment with NCI-H460 lung was 67.6 µM; in the experiment with SK-MEL-5 melanoma, 24.5 µM; with DU-145 prostate, above 100 µM; in the experiment with NCI/ADR-RES ovarian, 36 µM; in the experiment with NCI-H23 lung, 42.8 µM; with MDA-N, 29.7 µM. Besides, the total growth inhibition concentration (TGI) was 33.8 µM with KM12 colon, 28.1 µM in the experiment with HCT-15 colon and above 100 µM in the experiment on TK-10 renal.

For `Cc1ccc2oc(=O)c(C(=O)Nc3nc(C45CC6CC(CC(C6)C4)C5)cs3)cc2c1`, the TGI with NCI-H460 lung, in the experiment with SK-MEL-5 melanoma, in the experiment with OVCAR-4 ovarian, in the experiment with DU-145 prostate, in the experiment on NCI/ADR-RES ovarian and in the experiment on NCI-H23 lung was above 100 µM in each case. The TGI with MDA-N, in the experiment with KM12 colon and in the experiment with HCT-15 colon was above 100 µM throughout.

As for `CCOC(=O)c1sc2[n+](c1C)C(=O)/C(=C/c1ccc([N+](=O)[O-])cc1)S2`, the TGI is 45 µM with NCI-H460 lung; 72.1 µM with SK-MEL-5 melanoma; above 100 µM with OVCAR-4 ovarian; 92.3 µM with DU-145 prostate; 42.5 µM in the experiment on NCI/ADR-RES ovarian; 48.4 µM in the experiment with NCI-H23 lung. The results for the total growth inhibition concentration (TGI) in the experiment with MDA-N, in the experiment with KM12 colon and in the experiment with TK-10 renal were 66.9 µM, 47.5 µM and 50.7 µM, respectively.

Turning to `Nc1ccc(C(=O)c2cn(CCN3CCOCC3)c3ccccc23)c2ccccc12`, the TGI was above 100 µM in the experiment on NCI-H460 lung; 51.5 µM with SK-MEL-5 melanoma; above 100 µM with OVCAR-4 ovarian; above 100 µM in the experiment with DU-145 prostate; 65.3 µM in the experiment on NCI/ADR-RES ovarian; 68 µM in the experiment with NCI-H23 lung. Besides, the TGI was above 100 µM with MDA-N, above 100 µM with KM12 colon and 43.3 µM in the experiment with HCT-15 colon.

As for `Cc1ccc(/C(O)=C/c2nc3ccccc3s/c2=N/CS(=O)(=O)c2ccc(C)cc2)cc1`, the total growth inhibition concentration (TGI) in the experiment with SK-MEL-5 melanoma, in the experiment on OVCAR-4 ovarian, in the experiment with DU-145 prostate, in the experiment with NCI/ADR-RES ovarian, with NCI-H23 lung and in the experiment with MDA-N was above 10 µM in each case. The total growth inhibition concentration (TGI) with KM12 colon, in the experiment on HCT-15 colon and in the experiment on TK-10 renal was above 10 µM each time.

Consider `O=C(N/N=C(/COc1ccc([N+](=O)[O-])cc1)N=Cc1ccncc1)c1ccncc1`, for which the concentration for total growth inhibition (TGI) in the experiment on NCI-H460 lung, with OVCAR-4 ovarian, in the experiment on DU-145 prostate, in the experiment on NCI/ADR-RES ovarian, with NCI-H23 lung and with MDA-N was above 100 µM in each case. The total growth inhibition concentration (TGI) in the experiment with KM12 colon, in the experiment on HCT-15 colon and in the experiment on TK-10 renal was above 100 µM throughout.

As to `Cc1csc(/N=C\c2c(O)c3ccccc3oc2=O)n1`, the TGI in the experiment on SK-MEL-5 melanoma was above 100 µM; in the experiment with OVCAR-4 ovarian, above 100 µM; in the experiment with DU-145 prostate it was above 100 µM; in the experiment on NCI/ADR-RES ovarian, above 100 µM; in the experiment with NCI-H23 lung, 33 µM; in the experiment with MDA-N it was above 100 µM. Moreover, the results for the concentration for total growth inhibition (TGI) in the experiment with KM12 colon, in the experiment with HCT-15 colon and in the experiment with TK-10 renal were above 100 µM, above 100 µM and 77.8 µM, respectively.

As to `CC(=O)N=C1N(/C=C2\C(=O)Oc3ccccc3C2=O)C(=O)/C(=C/c2ccc(NC(C)=O)cc2)N1C`, the TGI in the experiment with NCI-H460 lung, in the experiment on SK-MEL-5 melanoma, in the experiment with OVCAR-4 ovarian, with DU-145 prostate, with NCI/ADR-RES ovarian and with NCI-H23 lung was above 100 µM throughout. Besides, the concentration for total growth inhibition (TGI) in the experiment on MDA-N, in the experiment on KM12 colon and with HCT-15 colon was above 100 µM each time.

For the compound `CC1(C)C2CC(=O)C1(C)C(OCc1ccccc1)C2` (centres undefined), the TGI in the experiment with NCI-H460 lung, in the experiment with SK-MEL-5 melanoma, in the experiment on DU-145 prostate, in the experiment with NCI/ADR-RES ovarian, in the experiment with NCI-H23 lung and with MDA-N was above 100 µM throughout. The TGI in the experiment with KM12 colon, with HCT-15 colon and in the experiment on TK-10 renal was above 100 µM throughout.

Regarding `O=C1c2cc(Cl)ccc2NC(=NCCCl)C2CSCN12` (centres undefined), the TGI in the experiment with NCI-H460 lung, in the experiment on SK-MEL-5 melanoma, in the experiment with OVCAR-4 ovarian, in the experiment with DU-145 prostate, in the experiment on NCI/ADR-RES ovarian and with MDA-N was above 100 µM each time. Also, the concentration for total growth inhibition (TGI) in the experiment on KM12 colon, with HCT-15 colon and with TK-10 renal was above 100 µM throughout.

The values above are taken from PubChem BioAssay (NCI).
